Measurements reported in US4401604A, “Process for preparing thiosulfenamide derivatives of N-phosphonomethylglycine triesters” (Monsanto Company, priority 1981, dated 1983).

Assays:
Experiment in all cases: Post-emergence herbicidal activity, greenhouse
Type in all cases: in vivo
Conditions in all cases: Table I, 4 WAT
[1] = test system: Barnyardgrass
Excerpt: (§1) A good grade of top soil is placed in aluminum pans having holes in the bottom and compacted to a depth of 0.95 to 1.27 cm. from the top of the pan. A predetermined number of seeds of each of several dicotyledonous and monocotyledonous annual plant species and/or vegetative propagules for the perennial plant species are placed on the soil and pressed into the soil surface. The seeds and/or vegetative propagules are covered with soil and leveled. The pans are then placed on a sand bench in the greenhouse and watered from below as needed. After the plants reach the desired age (two to three weeks), each pan except for the control pans is removed individually to a spraying chamber and sprayed by means of an atomizer operating at a positive air pressure of approximately 1.46 kg/cm^2 absolute. The atomizer contains 6 ml. of a solution or suspension of the chemical. In that 6 ml., is an amount of a cyclohexanone emulsifying agent mixture to give a spray solution or suspension which contains about 0.4% by weight of the emulsifier. The spray solution or suspension contains a sufficient amount of the candidate chemical in order to give application rates corresponding to those set forth in the tables. The spray solution is prepared by taking an aliquot of a 1.0% by weight stock solution or suspension of the candidate chemical in an organic solvent such as acetone or tetrahydrofuran or in water. The emulsifying agent employed is a mixture comprising 35 weight percent butylamine dodecylbenzene sulfonate and 65 weight percent of a tall oil ethylene oxide condensate having about 11 moles of ethylene oxide per mole of tall oil. The pans are returned to the greenhouse and watered as before and the injury to the plants as compared to the control is observed at approximately two and four weeks as indicated in the tables under WAT and the results recorded. In some instances, the two-week observations are omitted.
(§2) The post-emergence herbicidal activity index used in Table I is as follows:
(§3) The plant species utilized in these tests are identified by letter in accordance with the following legend: […]

[2] = test system: Cocklebur
Excerpt: as §1, §2, §3

[3] = test system: Downy Brome
Excerpt: as §1, §2, §3

[4] = test system: Johnsongrass
Excerpt: as §1, §2, §3

[5] = test system: Lambsquarters
Excerpt: as §1, §2, §3

[6] = test system: Morningglory
Excerpt: as §1, §2, §3

[7] = test system: Quackgrass
Excerpt: as §1, §2, §3

[8] = test system: Velvetleaf
Excerpt: as §1, §2, §3

[9] = test system: Yellow Nutsedge
Excerpt: as §1, §2, §3

In the case of `CCOC(=O)CN(CP(=O)(Oc1ccc(Cl)c(C)c1)Oc1ccc(Cl)c(C)c1)SSc1ccc(OC)cc1` [VII], the “post-emergence herbicidal activity index” value ([1]; 5.6 kg/h) is reported as 3 (75-99% control), the “post-emergence herbicidal activity index” value ([1]; 11.2 kg/h) is reported as 3 (75-99% control) and the “post-emergence herbicidal activity index” value ([2]; 5.6 kg/h) is reported as 1 (25-49% control). The “post-emergence herbicidal activity index” value ([2]; 11.2 kg/h) was 2 (50-74% control), the “post-emergence herbicidal activity index” value ([3]; 5.6 kg/h) was 2 (50-74% control) and the “post-emergence herbicidal activity index” value ([3]; 11.2 kg/h) was 2 (50-74% control). For the same compound, the “post-emergence herbicidal activity index” value ([4]; 5.6 kg/h) was 3 (75-99% control), the “post-emergence herbicidal activity index” value ([4]; 11.2 kg/h) was 2 (50-74% control) and the “post-emergence herbicidal activity index” value ([5]; 5.6 kg/h) was 2 (50-74% control). For the same compound, the “post-emergence herbicidal activity index” value ([5]; 11.2 kg/h) was 2 (50-74% control), the “post-emergence herbicidal activity index” value ([6]; 5.6 kg/h) was 1 (25-49% control) and the “post-emergence herbicidal activity index” value ([6]; 11.2 kg/h) was 1 (25-49% control). The “post-emergence herbicidal activity index” value ([7]; 5.6 kg/h) was 1 (25-49% control), the “post-emergence herbicidal activity index” value ([7]; 11.2 kg/h) was 1 (25-49% control) and the “post-emergence herbicidal activity index” value ([8]; 5.6 kg/h) was 1 (25-49% control). The “post-emergence herbicidal activity index” value ([8]; 11.2 kg/h) was 1 (25-49% control), the “post-emergence herbicidal activity index” value ([9]; 5.6 kg/h) was 2 (50-74% control) and the “post-emergence herbicidal activity index” value ([9]; 11.2 kg/h) was 1 (25-49% control).
